Test results as given in patent US20120010173A1 (SEPS PHARMA N.V., priority 2009, published 2012).
≈ marks a conversion by molar mass, not a printed value. Blank lines part the entries; values can stand above or below the compound they belong to.

How the values were obtained:
Assay type in all cases: physicochemical
[1] = Solubility of fosfluconazole derivatives in pharmaceutical solvents (Table 2); settings: for solubility at 24 h: thermodynamic from solid
Procedure: The solubility determination method used was as follows: a suspension of 6 mg of the tested fosfluconazole derivative in 500 μl of the applicable pharmaceutical solvent was rotatively shaken for 24 hours at 800 rpm at 25° C. The saturated fosfluconazole derivative solution was filtered (0.45 μm) and 150 μl of the filtrate was diluted in dimethylsulfoxide (50 μl DMSO). This solution was assayed, each assay being carried out in three-fold, by measurement with Liquid Chromatography-Mass Spectrometry (LCMS, 1 μl and 10 μl injection). Standards were prepared by dissolving the corresponding fosfluconazole derivative in DMSO (1 mg/ml). To determine the solubility, four aliquots (0.5, 1, 2, 4 μl) of the standard solution were injected using the same LCMS conditions as for the above exemplary samples.

[2] = Solubility in pharmaceutical solvents (Table 3); settings: for calculated fluconazole concentration: value within brackets
From the text: The values within brackets in Table 3 correspond to the calculated fluconazole concentrations taking into account the molecular weights of the relevant fosfluconazole prodrug and fluconazole itself.

[3] = Chemical stability in pharmaceutical solvents (weight % remaining in solution, LCMS)
Procedure: (§1) Table 4 provides the chemical stability data in some pharmaceutical solvents, expressed as the weight percentage (% w/w) of the final fosfluconazole derivative produced and characterized in example 1 that remained in solution after a certain period of time. The test was carried out twice, and the remaining weight % was determined by Liquid Chromatography-Mass Spectrometry (LCMS).
as §1, with “5” for “4”, “solvents at 25° C.,” for “solvents,”, “2” for “1”
as §1, with “6” for “4”, “solvents at 25° C.,” for “solvents,”, “3” for “1”
as §1, with “7” for “4”, “4” for “1”
as §1, with “8” for “4”, “5” for “1”
as §1, with “9” for “4”, “6” for “1”
as §1, with “10” for “4”, “14” for “1”

[4] = aqueous with cosolvent or surfactant or cyclodextrin, H2O/Cremophor RH 40 (80/20), 25° C.
[5] = aqueous with cosolvent or surfactant or cyclodextrin, H2O/Kleptose HPB (60/40), 25° C.
[6] = aqueous with cosolvent or surfactant or cyclodextrin, H2O/Vitamin E TPGS (90/10), 25° C.
[7] = aqueous with cosolvent or surfactant or cyclodextrin, H2O/polysorbate 80 (80/20), 25° C.
[8] = oil or lipid, Miglyol 812, 25° C.
[9] = organic solvent or mixture, PEG 400, 25° C.
[10] = water (pH 2), aqueous buffer, H2O (pH = 2), 25° C.
[11] = water (pH 7), aqueous buffer, H2O (pH = 7), 25° C.
[12] = water (pH 10), aqueous buffer, H2O (pH = 10), 25° C.
[13] = H2O/Kleptose HPB (60/40), 4 hours
[14] = H2O/Kleptose HPB (60/40), 1 day
[15] = H2O/Kleptose HPB (60/40), 2 days
[16] = H2O/Kleptose HPB (60/40), 7 days
[17] = H2O/Kleptose HPB (60/40), 14 days

Compound: CCOP(=O)(O[C@H]1CC[C@@]2(C)C(=CC[C@H]3[C@@H]4CC[C@H]([C@H](C)CCCC(C)C)[C@@]4(C)CC[C@@H]32)C1)OC(Cn1cncn1)(Cn1cncn1)c1ccc(F)cc1F (stereo partly shown) [Example 5]
- solubility at 24 h [1, 4]: 900 µg/mL (≈ 1.15 mM)
- solubility at 24 h [1, 5]: 500 µg/mL (≈ 0.639 mM)
- solubility at 24 h [1, 6]: 1400 µg/mL (≈ 1.79 mM)
- solubility at 24 h [1, 7]: 4500 µg/mL (≈ 5.75 mM)
- solubility at 24 h [1, 8]: 9700 µg/mL (≈ 12.4 mM)
- solubility at 24 h [1, 9]: 4100 µg/mL (≈ 5.24 mM)
- solubility at 24 h [1, 10]: < 1 µg/mL
- solubility at 24 h [1, 11]: < 1 µg/mL
- solubility at 24 h [1, 12]: < 1 µg/mL
- solubility ([2]; Benzylalcohol, organic solvent or mixture, read-out: solubility): ≥ 227 mg/mL
- solubility ([2]; Benzylbenzoate, organic solvent or mixture, read-out: solubility): 90 mg/mL (≈ 115 mM)
- solubility ([2]; Ethylbenzoate, organic solvent or mixture, read-out: solubility): 133 mg/mL (≈ 170 mM)
- solubility ([2]; Miglyol 812, oil or lipid, read-out: solubility): 12 mg/mL (≈ 15.3 mM)
- solubility ([2]; N-methylpyrrolidone, organic solvent or mixture, read-out: solubility): ≥ 227 mg/mL
- solubility ([2]; Sesame oil (LCT), oil or lipid, read-out: solubility): 10 mg/mL (≈ 12.8 mM)

Compound: 2-((2-(2,4-difluorophenyl)-1,3-di(1H-1,2,4-triazol-1-yl)propan-2-yloxy)(ethoxy)phosphoryloxy)ethyl (3S,8R,9S,10R,13S,14S,17R)-10,13,17-trimethyl-17-((R)-6-methylheptan-2-yl)-2,3,4,7,8,9,10,11,12,13,14,15,16,17-tetradecahydro-1H-cyclopenta[a]phenanthren-3-yl succinate [Example 6]
- weight percentage that remained in solution ([3]; H2O (pH = 2), 2 hours): 98.4 % w/w
- weight percentage that remained in solution ([3]; H2O (pH = 2), 4 hours): 44.0 % w/w
- weight percentage that remained in solution ([3]; H2O (pH = 2), 1 day): 55.3 % w/w
- weight percentage that remained in solution ([3]; H2O (pH = 2), 2 days): 46.4 % w/w
- weight percentage that remained in solution ([3]; H2O (pH = 2), 7 days): 0.0 % w/w
- weight percentage that remained in solution ([3]; H2O (pH = 2), 14 days): 0.0 % w/w
- weight percentage that remained in solution ([3]; H2O (pH = 7), 2 hours): 100.0 % w/w
- weight percentage that remained in solution ([3]; H2O (pH = 7), 4 hours): 100.0 % w/w
- weight percentage that remained in solution ([3]; H2O (pH = 7), 1 day): 100.0 % w/w
- weight percentage that remained in solution ([3]; H2O (pH = 7), 2 days): 100.0 % w/w
- weight percentage that remained in solution ([3]; H2O (pH = 7), 7 days): 100.0 % w/w
- weight percentage that remained in solution ([3]; H2O (pH = 7), 14 days): 100.0 % w/w
- weight percentage that remained in solution ([3]; H2O (pH = 10), 2 hours): 100.0 % w/w
- weight percentage that remained in solution ([3]; H2O (pH = 10), 4 hours): 100.0 % w/w
- weight percentage that remained in solution ([3]; H2O (pH = 10), 1 day): 100.0 % w/w
- weight percentage that remained in solution ([3]; H2O (pH = 10), 2 days): 100.0 % w/w
- weight percentage that remained in solution ([3]; H2O (pH = 10), 7 days): 100.0 % w/w
- weight percentage that remained in solution ([3]; H2O (pH = 10), 14 days): 100.0 % w/w
- weight percentage that remained in solution ([3]; H2O/Kleptose HPB (60/40), 2 hours): 86.7 % w/w
- weight percentage that remained in solution [3, 13]: 86.7 % w/w
- weight percentage that remained in solution [3, 14]: 86.7 % w/w
- weight percentage that remained in solution [3, 15]: 86.7 % w/w
- weight percentage that remained in solution [3, 16]: 86.7 % w/w
- weight percentage that remained in solution [3, 17]: 86.7 % w/w
- weight percentage that remained in solution ([3]; PEG 400, 2 hours): 100.0 % w/w
- weight percentage that remained in solution ([3]; PEG 400, 4 hours): 100.0 % w/w
- weight percentage that remained in solution ([3]; PEG 400, 1 day): 100.0 % w/w
- weight percentage that remained in solution ([3]; PEG 400, 2 days): 100.0 % w/w
- weight percentage that remained in solution ([3]; PEG 400, 7 days): 100.0 % w/w
- weight percentage that remained in solution ([3]; PEG 400, 14 days): 100.0 % w/w
- solubility ([1]; H2O (pH = 2), 25° C.): <0.001 mg/mL
- solubility ([1]; H2O (pH = 7), 25° C.): <0.001 mg/mL
- solubility ([1]; H2O (pH = 10), 25° C.): <0.001 mg/mL
- solubility ([1]; H2O/Cremophor RH 40 (80/20), 25° C.): <0.001 mg/mL
- solubility ([1]; H2O/Kleptose HPB (60/40), 25° C.): 0.6 mg/mL
- solubility ([1]; H2O/Vitamin E TPGS (90/10), 25° C.): 6.2 mg/mL
- solubility ([1]; H2O/polysorbate 80 (80/20), 25° C.): >10 mg/mL
- solubility ([1]; Miglyol 812, 25° C.): >10 mg/mL
- solubility ([1]; PEG 400, 25° C.): >10 mg/mL
- solubility ([2]; Benzylalcohol): ≥ 226.7
- calculated fluconazole concentration ([2]; Benzylalcohol): (74.8)
- solubility ([2]; Benzylbenzoate): ≥ 226.7
- calculated fluconazole concentration ([2]; Benzylbenzoate): (74.8)
- solubility ([2]; Ethylbenzoate): ≥ 226.7
- calculated fluconazole concentration ([2]; Ethylbenzoate): (74.8)
- solubility ([2]; Miglyol 812): 200.0
- calculated fluconazole concentration ([2]; Miglyol 812): (66.0)
- solubility ([2]; N-methylpyrrolidone): ≥ 226.7
- calculated fluconazole concentration ([2]; N-methylpyrrolidone): (74.8)
- solubility ([2]; Sesame oil (LCT)): 23.3
- calculated fluconazole concentration ([2]; Sesame oil (LCT)): (7.7)

- weight percentage that remained in solution ([3]; H2O (pH = 2), 4 hours): 97.8 % w/w
- weight percentage that remained in solution ([3]; H2O (pH = 2), 1 day): 97.7 % w/w
- weight percentage that remained in solution ([3]; H2O (pH = 2), 2 days): 96.8 % w/w
- weight percentage that remained in solution ([3]; H2O (pH = 2), 7 days): 96.7 % w/w
- weight percentage that remained in solution ([3]; H2O (pH = 2), 14 days): 100.0 % w/w
- weight percentage that remained in solution ([3]; H2O (pH = 7), 4 hours): 97.8 % w/w
- weight percentage that remained in solution ([3]; H2O (pH = 7), 1 day): 97.7 % w/w
- weight percentage that remained in solution ([3]; H2O (pH = 7), 2 days): 98.0 % w/w
- weight percentage that remained in solution ([3]; H2O (pH = 7), 7 days): 97.8 % w/w
- weight percentage that remained in solution ([3]; H2O (pH = 7), 14 days): 97.9 % w/w
- weight percentage that remained in solution ([3]; H2O (pH = 10), 4 hours): 94.6 % w/w
- weight percentage that remained in solution ([3]; H2O (pH = 10), 1 day): 98.0 % w/w
- weight percentage that remained in solution ([3]; H2O (pH = 10), 2 days): 96.8 % w/w
- weight percentage that remained in solution ([3]; H2O (pH = 10), 7 days): 96.8 % w/w
- weight percentage that remained in solution ([3]; H2O (pH = 10), 14 days): 99.2 % w/w
- weight percentage that remained in solution [3, 13]: 98.0 % w/w
- weight percentage that remained in solution [3, 14]: 98.0 % w/w
- weight percentage that remained in solution [3, 15]: 98.2 % w/w
- weight percentage that remained in solution [3, 16]: 97.7 % w/w
- weight percentage that remained in solution [3, 17]: 98.0 % w/w
- weight percentage that remained in solution ([3]; PEG 400, 4 hours): 97.7 % w/w
- weight percentage that remained in solution ([3]; PEG 400, 1 day): 97.9 % w/w
- weight percentage that remained in solution ([3]; PEG 400, 2 days): 98.1 % w/w
- weight percentage that remained in solution ([3]; PEG 400, 7 days): 98.0 % w/w
- weight percentage that remained in solution ([3]; PEG 400, 14 days): 98.7 % w/w
- solubility at 24 h [1, 4]: > 10000 µg/mL
- solubility at 24 h [1, 5]: > 10000 µg/mL
- solubility at 24 h [1, 6]: > 10000 µg/mL
- solubility at 24 h [1, 7]: > 10000 µg/mL
- solubility at 24 h [1, 8]: 5000 µg/mL
- solubility at 24 h [1, 9]: > 10000 µg/mL
- solubility at 24 h [1, 10]: 6900 µg/mL
- solubility at 24 h [1, 11]: > 10000 µg/mL
- solubility at 24 h [1, 12]: > 10000 µg/mL
Compound: CCCCCCCCCC(=O)OCCOP(=O)([O-])OC(Cn1cncn1)(Cn1cncn1)c1ccc(F)cc1F.[Na+] [Example 2, sodium 2-(decanoyloxy)ethyl 2-(2,4-difluorophenyl)-1,3-di(1H-1,2,4-triazol-1-yl)propan-2-yl phosphate]
